Assay [1] concerns the target T1, 5-HT1A receptor (Bos taurus, UniProt F6Q2H9).
T1 construct: 5-HT1A receptors in calf hippocampus membranes; from tissue; host or cells: calf hippocampus membranes
T1 sequence (F6Q2H9 1-422): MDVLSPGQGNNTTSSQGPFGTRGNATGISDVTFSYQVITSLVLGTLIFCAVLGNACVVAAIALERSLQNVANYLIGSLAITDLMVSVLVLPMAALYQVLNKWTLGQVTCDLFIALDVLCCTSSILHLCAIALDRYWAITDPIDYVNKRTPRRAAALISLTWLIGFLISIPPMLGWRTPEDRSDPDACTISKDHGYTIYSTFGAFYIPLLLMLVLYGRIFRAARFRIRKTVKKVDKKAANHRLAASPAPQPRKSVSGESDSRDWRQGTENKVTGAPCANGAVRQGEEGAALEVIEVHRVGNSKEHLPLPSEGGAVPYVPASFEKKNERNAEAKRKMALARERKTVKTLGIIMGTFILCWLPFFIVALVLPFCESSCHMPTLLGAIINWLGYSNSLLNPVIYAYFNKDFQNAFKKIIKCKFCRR
Briefly: Affinity for the 5-HT1A receptor, 3H-ipsapiron binding to calf hippocampus membranes. The following applies: 3H-ipsapiron radioligand. The procedure: 2.) Affinity for the 5-HT1A receptor [W. U. Dompert et al., Naunyn-Schmeideberg's Arch. Pharmacol. (1985), 328, 467-470]. In this test, the binding of ^3 H-ipsapiron to 5-HT1A receptors in calf hippocampus membranes is measured.

The target in assay [2] is sigma receptor. The experiment in a line: Affinity for the sigma receptor, DTG binding to calf hippocampus membranes. The following applies: 3-di-o-tolyl-guanidine (DTG), Ki calculated from IC50. As for the experimental part: 3.) Affinity for the sigma receptor The sigma receptor binding test is described in detail by E. Weber et al. (1986), Proc. Natl. Acad. Sci. 83, 8784-8788 and M. P. Kavanaugh et al., (1988), Proc. Natl. Acad. Sci. 85, 2844. […] In this binding test, IC50 values which indicate the test substance concentration at which 50% of the binding of the radioligand is suppressed are determined. The inhibition constants Ki are calculated from these taking into account the dissociation constants and the concentration of radioligands.

Assay [3] deals with 5-HT1 receptor. The experiment in a line: Affinity for the 5-HT1 receptor, 3H-serotonin binding to calf hippocampus membranes. The following applies: 3H-serotonin radioligand. From the text:
1.) Affinity for the 5-HT1 receptor
The high affinity of the compounds according to the invention for 5-hydroxytryptamine receptors of the sub-type 1 is shown by way of example in Table A. The values given are data which have been determined from receptor binding studies using calf hippocampus membrane preparations. ^3 H-Serotonin was used as the radioactively labelled ligand for this.

SMILES strings stand for the structures. Counter-ions that a name gives are not always drawn.

The text below walks through data of patent publication US5962513A, “2-aminomethyl-chromans effective in the treatment of psychoses and depression” (Bayer Aktiengesellschaft, priority 1991, dated 1999).

In the case of `CN(CC1CCN(Cc2ccccc2)CC1)CC1CCc2ccccc2O1` (stereo not drawn) [Example 35], the Ki (in general, the equilibrium dissociation constant of an inhibitor or competing ligand from its target) in assay [1] was 28 nM.

As to `c1ccc(CN2CCC(CNCC3CCc4ccccc4O3)CC2)cc1` (stereo not drawn) [Example 36], the inhibitory constant (Ki) in assay [2] is 25 nM; in assay [1] it was 0.5 nM. For `COc1cccc2c1OC(CNCC1CCCCC1)CC2` (stereo not drawn) [Example 17, N-Cyclohexylmethyl-2-aminomethyl-8-methoxychroman hydrochloride], the values for the inhibition constant Ki in assay [2] and in assay [1] were 8 nM and 0.7 nM, respectively. For `c1ccc2c(c1)CCC(CNCC13CC4CC(CC(C4)C1)C3)O2` (stereo not drawn) [Example 31], the inhibition constant (Ki) was 16 nM in assay [2] and 4.2 nM in assay [1].

With `COc1ccc(CNCC2CCc3cccc(OC)c3O2)cc1` (stereo not drawn) [Example 23], the Ki was 30 nM in assay [2] and 5 nM in assay [3].

`COc1cccc2c1OC(CNCc1ccc(C(F)(F)F)cc1)CC2` (stereo not drawn) [Example 22] registered a Ki in assay [3] of 6 nM. `COc1cccc2c1O[C@@H](CN(C)CC1CCCCCC1)CC2` [Example 13, 2-(R)-2-(N-Cycloheptylmethyl-N-methyl)aminomethyl-8-methoxy-chroman hydrochloride]: the Ki in assay [2] was 5 nM; in assay [3], 36 nM. Regarding `c1ccc2c(c1)CC[C@@H](CNCC1CCCCCC1)O2` [Example 1, S-(+)-2-(N-Cycloheptylmethyl)aminomethyl-chroman hydrochloride], the Ki in assay [2] is 7 nM. With `CC(CCCNCC1CCc2ccccc2O1)c1ccccc1` (stereo not drawn) [Example 18], in assay [3], the Ki is 3 nM. As to `c1ccc2c(c1)CCC(CNCC1CC1)O2` (stereo not drawn) [Example 28], the affinity in assay [1] corresponds to a Ki of 2.3 nM.
